# Reference: PMC10671498, “Antiproliferative and Cytotoxic Properties of Propynoyl Betulin Derivatives against Human Ovarian Cancer Cells: In Vitro Studies” (International Journal of Molecular Sciences, 2023)
# Where two headings read alike, the source gives them in different places.
# Assays:
# [1] = test system: OVCAR-3 cells; assay: SRB cell proliferation assay, OVCAR-3; type: cell-based, human; settings: for IC50: Homo sapiens
# Protocol: OVCAR-3 cells (ATCC No. HTB-161™) were cultured in RPMI-1640 medium containing HEPES buffer (2.383 g/L), sodium bicarbonate (1.5 g/L), sodium pyruvate (0.11 g/L) supplemented with 20% fetal bovine serum, 10 µg/mL bovine insulin, 100 U/mL penicillin, and 100 μg/mL streptomycin (all from Sigma Aldrich).
# (§1) Betulin 1 and its derivatives were dissolved in dimethyl sulfoxide (DMSO; Sigma Aldrich) as a 15 mM stock solution. Working solutions were prepared through the dilution of stock solutions with culture medium. The final DMSO concentration in culture media was adjusted to 0.2%. The effect of tested compounds on the proliferation of SK-OV-3 and OVCAR-3 cells was measured using the In Vitro Toxicology Assay Kit, Sulforhodamine B based (Sigma Aldrich). Cells were seeded in 96-well plates (Greiner Bio-One, Kremsmünster, Austria) at an initial density of 3 × 10^3 cells per well in 200 µL of culture medium. After 24 h of incubation, betulin 1 and its derivatives at a concentration range of 0.1 μM to 30 μM were added to the wells. Control cultures were treated with vehicle alone (0.2% DMSO). The incubation periods for cells with test compounds were 1 day, 3 days, and 5 days. After appropriate incubation periods, culture media were removed, and cells were fixed in 10% trichloroacetic acid solution for 60 min at 4 °C. After fixation, the TCA solution was removed, and the plates were washed three times with deionized water (300 μL/well) and dried. At the next step, cells were stained with 0.4% sulforhodamine B for 30 min. The excess dye was removed by washing three times with 1% (vol/vol) acetic acid. The protein-bound dye was dissolved in 200 μL 10 mM Tris base solution. Absorbance was measured at 570 nm and 690 nm (reference wavelength) using the MRX Revelation plate reader (Dynex Technologies, Chantilly, VA, USA).
# (§2) GraphPad Prism 10.0.2 (GraphPad Software Inc., San Diego, CA, USA) software was used for calculations and the statistical analysis of the IC50 values (Table 1). IC50 was determined by using the “nonlinear regression” mode, and the “log(inhibitor) vs. normalised response—Variable slope” equation was chosen in GraphPad Prism software for calculations. The obtained data were normalized to run from 100% down to 0%, and logarithms of concentration were used. Graphs (Figure 2, Figure 3, Figure 4, Figure 5 and Figure 8, and Supplementary Figure S1) were also prepared using this software. In the case of the lack of normal distribution or homogeneity of variances, the remaining results were analyzed using a non-parametric Kruskal–Wallis test with multiple comparisons. Post hoc analysis was performed with the non-parametric equivalent of Tukey’s test. A p value of <0.05 was considered statistically significant. Otherwise, a one-way ANOVA followed by a Tukey’s post hoc test was applied. t-tests was used to perform pairwise comparisons between group means. Analysis was performed using Statistica 13.1 software (StatSoft, Tulsa, OK, USA).
# [2] = test system: OVCAR-3 cells; assay: DNA fragmentation assay (Cell Death Detection ELISA, cytoplasmic fraction), OVCAR-3; type: cell-based, human; settings: OVCAR-3, 24 h; for DNA fragmentation (number of mono- and oligonucleosomes): 3 µM and 10 µM
# Protocol: Fragmentation of genomic DNA was determined by means of the Cell Death Detection ELISAPLUS kit (Roche, Basel, Switzerland). This method rests on the immunoenzymatic detection of DNA–histone complexes in the cytoplasmic cell fraction or cell culture supernatants. Cells were plated and cultured in 96-well plates (Greiner Bio-One) at the initial density of 5 × 10^3 cells per well in 100 µL of culture medium. Cells were allowed to attach and grow for 1 day prior to the addition of test reagents. Then, the media were replaced with the working solutions (3 µM, 10 µM, 30 µM), and cells were exposed to compounds 2–6 for 24 h. In some cases, 5 µM cyclosporin A (CsA, an inhibitor of the mitochondrial permeability transition) was added to the cells 30 min before treatment with the betulin derivative. Subsequently, cells were incubated concomitantly with both compounds. After a 24 h incubation period, plates were centrifuged (200× g; 10 min), media were removed, and cells were lysed for 30 min at room temperature. At the next step, the lysates were again spun (200× g; 10 min), and 20 µL of supernatants (cytoplasmic fractions) was moved to the new 96-well streptavidin-coated plate. In one experiment, the presence of mono- and oligonucleosomes was determined in 20 µL samples of centrifuged culture supernatants (media) to detect the permeability of plasma membrane (considered as an indicator of cell necrosis). Then, the sandwich ELISA assay was fulfilled according to the manufacturer’s protocol. Absorbance was measured at 405 nm and 490 nm (reference wavelength), and the enrichment factor of the cytoplasmic (or supernatant) fraction in mono- and oligonucleosomes was calculated according to the formula: EF = absorbance of sample cells/absorbance of control cells.
# A high EF index in the cytoplasmic fraction (resulting from DNA fragmentation while maintaining the tightness of cell membranes) is a typical indicator of the relatively early stage of apoptosis.
# [3] = test system: SK-OV-3 cells; assay: SRB cell proliferation assay, SK-OV-3; type: cell-based, human; settings: for IC50: Homo sapiens
# Protocol: This study used ovarian cancer cell lines, which are part of the panel of cell lines used as part of the NCI-60 Human Cell Lines Screen program, characterized by overexpression of the c-erbB2/neu (HER2) receptor [62, 63]. The human ovarian cancer cell lines (SK-OV-3 and OVCAR-3) were purchased from the American Type Culture Collection (ATCC®, Manassas, Virginia, USA). SK-OV-3 cells (ATCC No. HTB-77™) were cultured in McCoy’s 5A medium containing D-glucose (3 g/L), L-glutamine (0.219 g/L), and sodium bicarbonate (2.2 g/L) supplemented with 10% fetal bovine serum, 10 mM HEPES (pH 7.3–7.5), 100 U/mL penicillin, and 100 μg/mL streptomycin (all from Sigma Aldrich).
# as §1, §2
# [4] = test system: 18Co normal myofibroblasts; assay: SRB cell proliferation assay, 18Co normal myofibroblasts; type: cell-based; settings: 18Co, Neg: negative in the concentration used
# Protocol: Next, 18Co cells (ATCC No. CRL-1459™) were cultured in MEM medium containing HEPES buffer, 10% fetal bovine serum, 100 U/mL penicillin, and 100 μg/mL streptomycin (all from Sigma Aldrich).
# as §1, §2
Compound,"IC50 ([1]; 72 h, OVCAR-3, 3 days treatment, SRB assay, read-out: IC50) [nM]","IC50 ([1]; 120 h, OVCAR-3, 5 days treatment, SRB assay, read-out: IC50) [nM]",DNA fragmentation (number of mono- and oligonucleosomes) [2],DNA fragmentation (enrichment factor) ([2]; 30 µM),"IC50 ([3]; 72 h, SK-OV-3, 3 days treatment, SRB assay, read-out: IC50) [nM]","IC50 ([3]; 120 h, SK-OV-3, 5 days treatment, SRB assay, read-out: IC50) [nM]",IC50 ([4]; 3 days treatment),IC50 ([4]; 5 days treatment),"IC50 ([1]; OVCAR-3, 72 h) [nM]","IC50 ([1]; OVCAR-3, 120 h) [nM]","concentration at which antiproliferative activity (decrease in the number of cells) was evident ([1]; OVCAR-3, SRB assay, 0.1–30 µM) [µM]","IC50 ([3]; SK-OV-3, 72 h) [nM]","IC50 ([3]; SK-OV-3, 120 h) [nM]","concentration at which antiproliferative activity (decrease in the number of cells) was evident ([3]; SK-OV-3, SRB assay, 0.1–30 µM) [µM]"
"C=C(C)[C@@H]1CC[C@]2(CO)CC[C@]3(C)[C@H](CC[C@@H]4[C@@]5(C)CC[C@H](O)C(C)(C)[C@@H]5CC[C@]43C)[C@@H]12 [Compound 1, lup-20(29)-ene-3β,28-diol, reference compound]",9030,10100,comparable to the control,caused an increase in DNA fragmentation,8210,4590,Neg,Neg,,,,,,
"C#CC(=O)OC[C@]12CC[C@@H](/C(C)=C/P(=O)(OCC)OCC)C1C1CCC3[C@@]4(C)CC[C@H](O)C(C)(C)C4CC[C@@]3(C)[C@]1(C)CC2 (some centres unmarked) [Compound 6, E-29-diethoxyphosphoryl-28-O-propynoylbetulin]",,,slightly smaller effect than the lowest concentration of compound 4,,,,Neg,Neg,680,590,1,290,260,1
